Patent US10716765B2, “Delivery of functional compounds” (Intercontinental Great Brands LLC, priority 2009, dated 2020)

Experiments:
[1] = versus linalool and thymol, FIG. 3; cited from earlier work
[2] = Evaluation of emulsifiers in oil-in-water emulsion of essential oil blend; assay type: physicochemical; conditions: compared with other emulsifiers
Text: Various emulsifiers were combined with deionized water at 60 C to produce 2% solutions. The resulting solutions were combined with an essential oil blend composition (4% alpha-pinene, 30% para-cymene, 7% linalool, and 35% thymol and 24% soybean oil) in a 50:50 weight ratio with deionized water to create an oil-in-water emulsion. The emulsifiers evaluated were Glycosperse S-20 KFG (Lonza; Fairlawn, N.J.), Polyaldo 10-1-O KFG (Lonza; Fairlawn, N.J.), Aldosperse MS-20 KFG (Lonza; Fairlawn, N.J.), Polyaldo 10-2-P KFG (Lonza; Fairlawn, N.J.), Ryoto sugar ester (S-1570, Mitsubishi-Kagaku Food Corp.; Tokyo, Japan), Precept 8120 (Central Soya; Fort Wayne, Ind.) and sodium caseinate (Alanate-180, New Zealand Dairy Board; Wellington, New Zealand).

[3] = In vitro digestion model simulating stomach and small intestine conditions; assay type: in vitro ADME
Text: This example compares the release of the non-esterified functional ingredient to the esterified functional ingredient during a simulated gastrointestinal study using an in vitro digestion model.
In addition, the partition coefficients for the ester compounds are greater than the parent compounds. These factors indicate that the ester compounds have a greater affinity for the hydrophobic carrier and insoluble matrix material than the parent compounds. […] The reduced rate is most evident when comparing linalool and thymol release from FIG. 4 to linalyl acetate and thymyl acetate release from FIG. 5. This improvement in stability within the model stomach implies increased stability in other low pH systems, such as acidic beverages, and further illustrates the importance of the esters for successful microencapsulation and enteric release of the functional ingredients.
As evident in FIGS. 4 and 5, the gastric release rate was reduced, as well as the release rate from 0-24.5 h, representative of the residence time in the small intestine. FIGS. 6 and 7 show the release rates of two esters of linalool, linalyl acetate in FIG. 6 and linalyl butyrate in FIG. 7 within a digestion model simulating stomach and small intestine conditions and residence times. In addition, the levels of the parent compounds present in the digestion model over time were measured. […]

Molecule | partition coefficient compared with parent compounds [1] | solubility in water compared with parent compounds [1] | oil droplets within the emulsion ([2]; 2% emulsifier solution, 50:50 with essential oil blend) | emulsion stability ([2]; after 24 hours storage at room temperature) | hydrolysis of the ester to linalool [3]
CC(=O)Oc1cc(C)ccc1C(C)C [thymyl acetate] | greater | significantly lower |  |  | 
sucrose stearate [Example S-1570] |  |  | smallest and most uniformly dispersed oil droplets | greatest stability | 
C=CC(C)(CCC=C(C)C)OC(=O)CCC (stereo not shown) [linalyl butyrate] | greater | significantly lower |  |  | about 5%
C=CC(C)(CCC=C(C)C)OC(C)=O (stereo not shown) [linalyl acetate] | greater | significantly lower |  |  | about 33%
